For 19 molecules, AC50 results are on record in US20230365592A1 (Agios Pharmaceuticals, Inc., priority 2022, published 2023).

For the assay, the target named is T1, human PAH with the R408W mutation (Homo sapiens, UniProt P00439, R408W).
T1 construct: expressed in transfected cells
T1 sequence (P00439 1-452 R408W): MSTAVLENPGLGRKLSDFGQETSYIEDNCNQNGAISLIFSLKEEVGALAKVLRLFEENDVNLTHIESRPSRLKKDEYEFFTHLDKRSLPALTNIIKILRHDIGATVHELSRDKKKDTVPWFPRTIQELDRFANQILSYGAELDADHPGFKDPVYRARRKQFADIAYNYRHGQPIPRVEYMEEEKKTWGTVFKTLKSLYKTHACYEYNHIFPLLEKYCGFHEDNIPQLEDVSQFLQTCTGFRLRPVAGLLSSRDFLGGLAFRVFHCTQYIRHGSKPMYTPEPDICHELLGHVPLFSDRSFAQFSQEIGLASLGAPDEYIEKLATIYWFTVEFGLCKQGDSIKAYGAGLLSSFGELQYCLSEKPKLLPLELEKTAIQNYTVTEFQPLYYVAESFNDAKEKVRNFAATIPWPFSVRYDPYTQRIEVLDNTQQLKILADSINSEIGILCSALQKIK
Description: Cell Based Phenylalanine Flux Assay.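 Note: after compound treatment, cells received sepiapterin plus isotope-labelled Phenylalanine for 4 hours, then labelled Tyrosine in the medium was quantified, 10-point 2-fold dilution series run in duplicate.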 The conditions noted are these: A375 cells expressing human R408W PAH; 24 hrs compound incubation; 13C-Tyrosine by LC-MS; average where tested multiple times; read-out: AC50.
Description: Compounds were resuspended in DMSO, and 2-fold serial dilutions were performed to generate a 10-point dose curve. Compounds were added to plated cells in a total volume of 100 µl, and a final DMSO concentration of 0.5%. Each compound was tested in duplicate. Following compound addition, cells were placed in a 5% CO2, 37° C. tissue culture incubator for 24 hrs. After the incubation period, 20 µM sepiapterin and 800 µM 13C9,15N-Phenylalanine were added. After 4 hours, cell media was removed. An aliquot of 10 µl of cell media was combined with 200 µl of extraction buffer (80% acetonitrile/20% H2O) for each well. Determination of ^13C-Tyrosine concentration was assessed by liquid chromatography mass spectrometry.
Where a compound was tested multiple times, the average value of the tests is reported.
Usually AC50 stands for the concentration giving half of the maximal activity seen. Consider `COc1ccc(-c2nnc(C(=O)N3CCc4[nH]cnc4[C@@H]3c3cc4cccc(C(F)(F)F)n4n3)o2)cn1` [Example 1345, (R)-(5-(6-methoxypyridin-3-yl)-1,3,4-oxadiazol-2-yl)(4-(7-(trifluoromethyl)pyrazolo[1,5-a]pyridin-2-yl)-6,7-dihydro-1H-imidazo[4,5-c]pyridin-5(4H)-yl)methanone], for which the AC50 lay within 1 to 5 µM.

`O=C(c1nnc(-c2cccnc2)o1)N1CCc2[nH]cnc2[C@@H]1c1cc2ccccn2n1` [Example 1347, (R)-(4-(pyrazolo[1,5-a]pyridin-2-yl)-6,7-dihydro-1H-imidazo[4,5-c]pyridin-5(4H)-yl)(5-(pyridin-3-yl)-1,3,4-oxadiazol-2-yl)methanone]: the AC50 lay in the range of 1 to 5 µM.

For the molecule `Cc1c(-c2nnc(C(=O)N3CCc4[nH]cnc4[C@H]3c3cc4c(C(F)F)cccn4n3)o2)cnn1C` [Example 1348, (S)-(4-(4-(difluoromethyl)pyrazolo[1,5-a]pyridin-2-yl)-6,7-dihydro-1H-imidazo[4,5-c]pyridin-5(4H)-yl)(5-(1,5-dimethyl-1H-pyrazol-4-yl)-1,3,4-oxadiazol-2-yl)methanone], the AC50 was less than 0.5 µM.

Regarding `CC(C)(F)c1nnc(C(=O)N2CCc3[nH]cnc3[C@@H]2c2cc3c(C(F)F)cccn3n2)o1` [Example 1351, (R)-(4-(4-(difluoromethyl)pyrazolo[1,5-a]pyridin-2-yl)-6,7-dihydro-1H-imidazo[4,5-c]pyridin-5(4H)-yl)(5-(2-fluoropropan-2-yl)-1,3,4-oxadiazol-2-yl)methanone], the AC50 is greater than 5 µM.

As to `Cn1ccc(-c2nnc(C(=O)N3CCc4[nH]cnc4[C@H]3c3cc4c(C(F)F)cccn4n3)o2)n1` [Example 1352, (S)-(4-(4-(difluoromethyl)pyrazolo[1,5-a]pyridin-2-yl)-6,7-dihydro-1H-imidazo[4,5-c]pyridin-5(4H)-yl)(5-(1-methyl-1H-pyrazol-3-yl)-1,3,4-oxadiazol-2-yl)methanone], the AC50 was less than 0.5 µM.

In the case of `CC1(c2nnc(C(=O)N3CCc4[nH]cnc4[C@H]3c3cc4cccc(C(F)(F)F)n4n3)o2)CC1` [Example 1354, (S)-(5-(1-methylcyclopropyl)-1,3,4-oxadiazol-2-yl)(4-(7-(trifluoromethyl)pyrazolo[1,5-a]pyridin-2-yl)-6,7-dihydro-1H-imidazo[4,5-c]pyridin-5(4H)-yl)methanone], the AC50 is 0.5 to 1 µM.

`CC1(c2nnc(C(=O)N3CCc4[nH]cnc4[C@@H]3c3cc4cccc(C(F)(F)F)n4n3)o2)CC1` [Example 1355, (R)-(5-(1-methylcyclopropyl)-1,3,4-oxadiazol-2-yl)(4-(7-(trifluoromethyl)pyrazolo[1,5-a]pyridin-2-yl)-6,7-dihydro-1H-imidazo[4,5-c]pyridin-5(4H)-yl)methanone]: the concentration at half-maximal activity (AC50) fell in the range of 1 to 5 µM.

For `Cc1ncccc1-c1nnc(C(=O)N2CCc3[nH]cnc3[C@H]2c2cc3cccc(C)n3n2)o1` [Example 1358, (S)-(4-(7-methylpyrazolo[1,5-a]pyridin-2-yl)-6,7-dihydro-1H-imidazo[4,5-c]pyridin-5(4H)-yl)(5-(2-methylpyridin-3-yl)-1,3,4-oxadiazol-2-yl)methanone], the AC50 was less than 0.5 µM.

For `Cc1ncccc1-c1nnc(C(=O)N2CCc3[nH]cnc3[C@@H]2c2cc3cccc(C)n3n2)o1` [Example 1359, (R)-(4-(7-methylpyrazolo[1,5-a]pyridin-2-yl)-6,7-dihydro-1H-imidazo[4,5-c]pyridin-5(4H)-yl)(5-(2-methylpyridin-3-yl)-1,3,4-oxadiazol-2-yl)methanone], the AC50 lay in the range of 1 to 5 µM.

With `O=C(c1nnc(-c2cnccn2)o1)N1CCc2[nH]cnc2[C@@H]1c1cc2cccc(C(F)(F)F)n2n1` [Example 1360, (R)-(5-(pyrazin-2-yl)-1,3,4-oxadiazol-2-yl)(4-(7-(trifluoromethyl)pyrazolo[1,5-a]pyridin-2-yl)-6,7-dihydro-1H-imidazo[4,5-c]pyridin-5(4H)-yl)methanone], the concentration at half-maximal activity (AC50) is greater than 5 µM.

`O=C(c1nnc(-c2cnccn2)o1)N1CCc2[nH]cnc2[C@@H]1c1cc2ccccn2n1` [Example 1363, (R)-(5-(pyrazin-2-yl)-1,3,4-oxadiazol-2-yl)(4-(pyrazolo[1,5-a]pyridin-2-yl)-6,7-dihydro-1H-imidazo[4,5-c]pyridin-5(4H)-yl)methanone]: the half-maximal activity concentration (AC50) is greater than 5 µM.

As to `Cc1c(-c2nnc(C(=O)N3CCc4[nH]cnc4[C@H]3c3cc4cccc(C(F)F)n4n3)o2)cnn1C` [Example 1366, (S)-(4-(7-(difluoromethyl)pyrazolo[1,5-a]pyridin-2-yl)-6,7-dihydro-1H-imidazo[4,5-c]pyridin-5(4H)-yl)(5-(1,5-dimethyl-1H-pyrazol-4-yl)-1,3,4-oxadiazol-2-yl)methanone], the AC50 was less than 0.5 µM.

With `Cn1nc(C(F)F)cc1C(=O)N1CCc2[nH]cnc2[C@@H]1c1cc2c(Cl)cccn2n1` [Example 1369, (R)-(4-(4-chloropyrazolo[1,5-a]pyridin-2-yl)-6,7-dihydro-1H-imidazo(4,5-c]pyridin-5(4H)-yl)(3-(difluoromethyl)-1-methyl-1H-pyrazol-5-yl)methanone], the AC50 fell in the range of 1 to 5 µM.

`Cn1nc(C(F)F)cc1C(=O)N1CCc2[nH]cnc2[C@H]1c1cc2c(C(F)(F)F)cccn2n1` [Example 1370, (S)-(3-(difluoromethyl)-1-methyl-1H-pyrazol-5-yl)(4-(4-(trifluoromethyl)pyrazolo[1,5-a]pyridin-2-yl)-6,7-dihydro-1H-imidazo[4,5-c]pyridin-5(4H)-yl)methanone]: the AC50 is less than 0.5 µM.

`O=C(c1nnc(-c2cnn(C(F)F)c2)o1)N1CCc2[nH]cnc2[C@H]1c1cc2c(C(F)F)cccn2n1` [Example 1374, (S)-(5-(1-(difluoromethyl)-1H-pyrazol-4-yl)-1,3,4-oxadiazol-2-yl)(4-(4-(difluoromethyl)pyrazolo[1,5-a]pyridin-2-yl)-6,7-dihydro-1H-imidazo[4,5-c]pyridin-5(4H)-yl)methanone]: the half-maximal activity concentration (AC50) is less than 0.5 µM.

As for `O=C(c1nnc(-c2cnn(C(F)F)c2)o1)N1CCc2[nH]cnc2[C@@H]1c1cc2c(C(F)F)cccn2n1` [Example 1375, (R)-(5-(1-(difluoromethyl)-1H-pyrazol-4-yl)-1,3,4-oxadiazol-2-yl)(4-(4-(difluoromethyl)pyrazolo[1,5-a]pyridin-2-yl)-6,7-dihydro-1H-imidazo[4,5-c]pyridin-5(4H)-yl)methanone], the AC50 is greater than 5 µM.

`O=C(c1nnc(-c2ccn(C(F)F)n2)o1)N1CCc2[nH]cnc2[C@H]1c1cc2c(C(F)F)cccn2n1` [Example 1377, (S)-(5-(1-(difluoromethyl)-1H-pyrazol-3-yl)-1,3,4-oxadiazol-2-yl)(4-(4-(difluoromethyl)pyrazolo[1,5-a]pyridin-2-yl)-6,7-dihydro-1H-imidazo[4,5-c]pyridin-5(4H)-yl)methanone]: the AC50 is less than 0.5 µM.

Consider `CC1(c2nnc(C(=O)N3CCc4[nH]cnc4[C@H]3c3cc4c(F)cccn4n3)o2)CC1` [Example 1378, (S)-(4-(4-fluoropyrazolo[1,5-a]pyridin-2-yl)-6,7-dihydro-1H-imidazo[4,5-c]pyridin-5(4H)-yl)(5-(1-methylcyclopropyl)-1,3,4-oxadiazol-2-yl)methanone], for which the concentration at half-maximal activity (AC50) is less than 0.5 µM.

In the case of `CC1(c2nnc(C(=O)N3CCc4[nH]cnc4[C@@H]3c3cc4c(F)cccn4n3)o2)CC1` [Example 1379, (R)-(4-(4-fluoropyrazolo[1,5-a]pyridin-2-yl)-6,7-dihydro-1H-imidazo[4,5-c]pyridin-5(4H)-yl)(5-(1-methylcyclopropyl)-1,3,4-oxadiazol-2-yl)methanone], the AC50 is greater than 5 µM.
